The values below come from US20240262842A1, “SMALL MOLECULE INHIBITORS OF KRAS G12C MUTANT” (Merck Sharp & Dohme LLC, priority 2021, published 2024).

Experiment [1] has as its target T1, interaction between GMPPNP-bound recombinant K-Ras4B G12C mutant protein and cRAF RAS-binding domain (cRAF-RBD) (Homo sapiens, UniProt P01116, G12C).
T1 construct: His-tag (N)
Nature of the experiment: Inhibitory activity on interaction between KRAS G12C and cRAF (Alpha technology). Conditions: Table 2. In outline: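 His-tagged K-Ras4B G12C (aa 1-169), GMPPNP-loaded, preincubated with compound 1 h at 25° C in pH 7.5 Tris buffer with MgCl2, TCEP, Tween 20. cRAF-RBD (aa 50-132) and Alpha reagents then added for 1.5 h; Alpha signal normalised to DMSO (0%) and GDP-bound KRAS (100%); IC50 from dose titration.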

Another experiment has as its system MIA PaCa-2 cells. Nature of the experiment: Growth inhibition activity on KRAS-G12C mutant cell line (CellTiter-Glo 3D). The format is cell-based, human. The conditions noted are these: Homo sapiens, MIA PaCa-2, 72 h, MIA PaCa-2, 3-day culture with compound; Table 3. In outline: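 MIA PaCa-2 cells in RPMI1640 with 10% FBS, U-bottom wells, cultured 1 day before compound (0.2% DMSO final), then 3 days at 37 °C, 5% CO2. Viability by CellTiter-Glo 3D luminescence; growth inhibition versus untreated wells gives IC50 (nM).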
On the technique in general: ATP-based viability assays read luminescence as a measure of living cells.

Setting [2] is: IC50, GMPPNP-bound KRAS G12C incubated with compound 25° C. 1 hour.
Setting [3] is: GMPPNP-bound KRAS G12C incubated with compound 25° C. 1 hour, read-out: IC50.

Where two headings read alike, the source gives them in different places. Where only a bound is given, the exact number is not on record here.

T1 sequence (P01116 with tags, fused parts or gaps isoform P01116-2 G12C): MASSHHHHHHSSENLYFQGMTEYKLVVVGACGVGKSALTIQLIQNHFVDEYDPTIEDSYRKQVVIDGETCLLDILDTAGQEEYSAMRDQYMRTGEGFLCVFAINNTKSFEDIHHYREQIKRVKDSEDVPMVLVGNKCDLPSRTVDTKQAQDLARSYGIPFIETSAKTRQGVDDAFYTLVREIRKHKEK

One may read the IC50 as the concentration needed to halve the response being measured. As to `Cc1cc2c(nc(C)n2C)c2c1-c1cccc3c(C(=O)c4cc(F)c(NC(=O)/C=C/CNC(C)(C)C)c(F)c4)cn(c13)CCO2` [Example 13, (E)-4-(tert-butylamino)-N-(2,6-difluoro-4-(6,8,9-trimethyl-12,13-dihydro-SH-imidazo[4″,5″:3′,4′]benzo[1′,2:7,8][1,4]oxazocino[6,5,4-hi]indole-2-carbonyl)phenyl)but-2-enamide], the IC50 in experiment [1] (setting [2]) came out at 17 nM; with MIA PaCa-2 cells it was 59 nM.
`CO[C@H]1CC[C@H](NC/C=C/C(=O)Nc2c(F)cc(C(=O)c3cn4c5c(cccc35)-c3c(C)cc5c(nc(C)n5C)c3OC4)cc2F)CC1` [Example 16, (E)-N-(2,6-difluoro-4-(2,3,5-trimethyl-3H,12H-imidazo[4″,5″.3′,4′]benzo[1′,2:6,7][1,3]oxazepino[5,4,3-hi]indole-9-carbonyl)phenyl)-4-(((1r,4r)-4-methoxycyclohexyl)amino)but-2-enamide]: the IC50 came out at 100 nM in experiment [1] (setting [2]) and 56 nM with MIA PaCa-2 cells.
The matching figures for `CO[C@H]1CC[C@H](NC/C=C/C(=O)Nc2c(F)cc(C(=O)c3cn4c5c(cccc35)-c3c(C)cc5c(nc(C)n5C)c3OC[C@H]4C)cc2F)CC1` [Example 17, (E)-N-(2,6-difluoro-4-((R)-6,8,9,13-tetramethyl-12,13-dihydro-8H-imidazo[4″,5″;3′,4′]benzo[1′,2:7,8][1,4]oxazocino[6,5,4-hi]indole-2-carbonyl)phenyl)-4-(((1,4r)-4-methoxycyclohexyl)amino)but-2-enamide]: 1300 nM and 820 nM.
Turning to `CO[C@H]1CC[C@H](NC/C=C/C(=O)Nc2c(F)cc(C(=O)c3cn4c5c(cccc35)-c3c(C)cc5c(nc(C)n5C)c3OC[C@@H]4C)cc2F)CC1` [Example 18, (E)-N-(2,6-difluoro-4-((S)-6,8,9,13-tetramethyl-12,13-dihydro-8H-imidazo[4″,5″:3′,4]benzo[1′,2′:7,8][1,4]oxazocino[6,5,4-hi]indole-2-carbonyl)phenyl)-4-(((1,4r)-4-methoxycyclohexyl)amino)but-2-enamide], the IC50 in experiment [1] (setting [2]) was 19 nM; with MIA PaCa-2 cells it was 21 nM.
Take `CO[C@H]1CC[C@H](NC/C=C/C(=O)Nc2c(F)cc(C(=O)c3cn4c5c(cccc35)-c3c(C)cc5c(nc(C)n5C)c3O[C@H](C)C4)cc2F)CC1` [Example 19, (E)-N-(2,6-difluoro-4-((R)-6,8,9,12-tetramethy 1-12,13-dihydro-8H-imidazo[4″,5″:3′,4′]benzo[1′,2′:7,8][1,4]oxazocino[6,5,4-hi]indole-2-carbonyl)phenyl)-4-(((1,4r)-4-methoxycyclohexyl)amino)but-2-enamide]: the results for the IC50 (in experiment [1] (setting [2]); with MIA PaCa-2 cells) were above 6700 nM and 3300 nM, respectively.
With `CO[C@H]1CC[C@H](NC/C=C/C(=O)Nc2c(F)cc(C(=O)c3cn4c5c(cccc35)-c3c(C)cc5c(nc(C)n5C)c3OC[C@@H](C)C4)cc2F)CC1` [Example 22, (E)-N-(2,6-difluoro-4-((S)-6,8,9,13-tetramethyl-13,14-dihydro-8H, 12H-imidazo[4″,5″:3′,4′]benzo[1′,248,9][1,5]oxazonino[7,6,5-hi]indole-2-carbonyl)phenyl)-4-(((1,4r)-4-methoxycyclohexyl)amino)but-2-enamide], the IC50 (in experiment [1] (setting [2]); in the experiment on MIA PaCa-2 cells) was 100 nM in each case.
As to `CO[C@H]1CC[C@H](NC/C=C/C(=O)Nc2c(F)cc(C(=O)c3c(C)n4c5c(cccc35)-c3c(C(F)(F)F)cc5c(nc(C)n5C)c3OCC4)cc2F)CC1` [Example 25, (E)-N-(2,6-difluoro-4-(1,8,9-trimethyl-6-(trifluoromethyl)-12, 13-dihydro-8H-imidazo[4″,5″:3′,4′]benzo[1′,2′:7,8][1,4]oxazocino[6,5,4-hi]indole-2-carbonyl)phenyl)-4-(((1,4r)-4-methoxycyclohexyl)amino)but-2-enamide], the IC50 in experiment [1] (setting [2]) was found to be 39 nM; with MIA PaCa-2 cells, 24 nM.
The matching figures for `CO[C@H]1CC[C@H](NC/C=C/C(=O)Nc2c(F)cc(C(=O)c3cn4c5c(cccc35)-c3c(C)cc5c(nc(C)n5C)c3OCC(F)(F)C4)cc2F)CC1` [Example 26, (E)-N-(4-(13,13-difluoro-6,8,9-trimethyl-13,14-dihydro-8H,12H-imidazo[4″,5″:3′,4′]benzol[1′,2′:8,9][1,5]oxazonino[7,6,5-hi]indole-2-carbonyl)-2,6-difluorophenyl)-4-(((1r,4r)-4-methoxycyclohexyl)amino)but-2-enamide]: 100 nM and 130 nM.
As for `CO[C@H]1CC[C@H](NC/C=C/C(=O)Nc2c(F)cc(C(=O)c3cn4c5c(cccc35)-c3c(C)cc5c(nc(C)n5C)c3CCC4)cc2F)CC1` [Example 27, (E)-N-(2,6-difluoro-4-(6,8,9-trimethyl-8,11,12,13-tetrahydroimidazo[4″,5″:3′,4′]benzo[1′,2′:4,5]azocino[3,2,1-hi]indole-2-carbonyl)phenyl)-4-(((1r,4r)-4-methoxycyclohexyl)amino)but-2-enamide], the figures for the IC50 (in experiment [1] (setting [2]); in the experiment on MIA PaCa-2 cells) were 64 nM and 88 nM, respectively.
For `CO[C@H]1CC[C@H](NC/C=C/C(=O)Nc2c(F)cc(C(=O)c3cn4c5c(cccc35)-c3c(C(F)(F)F)cc5c(nc(C)n5C)c3CCC4)cc2F)CC1` [Example 28, (E)-N-(4-(8,9-dimethyl-6-(trifluoromethyl)-8,11,12,13-tetrahydroimidazo[4″,5″:3′,4′]benzo[1′,2:4,5]azocino[3,2,1-hi]indole-2-carbonyl)-2,6-difluorophenyl)-4-(((1r,4r)-4-methoxycyclohexyl)amino)but-2-enamide], the IC50 in experiment [1] (setting [2]) is 53 nM; in the experiment on MIA PaCa-2 cells it was 17 nM.
Take `CO[C@H]1CC[C@H](NC/C=C/C(=O)Nc2c(F)cc(C(=O)c3cn4c5c(cccc35)-c3c(C(F)(F)F)cc5c(nc(C)n5C)c3CCCC4)cc2F)CC1` [Example 29, (E)-N-(4-(8,9-dimethy 1-6-(trifluoromethyl)-11,12,13,14-tetrahydro-8H-imidazo[4″,5″:3′,4′]benzo[1′,2:4,5]azonino[3,2,1-hi]indole-2-carbonyl)-2,6-difluorophenyl)-4-(((1r,4r)-4-methoxycyclohexyl)amino)but-2-enamide]: the IC50 in experiment [1] (setting [2]) was 220 nM; in the experiment on MIA PaCa-2 cells it was 53 nM.
On to `CO[C@H]1CC[C@H](NC/C=C/C(=O)Nc2c(F)cc(C(=O)c3cc4c5c(cccn35)-c3c(C)cc5c(nc(C)n5C)c3OCC4)cc2F)CC1` [Example 32, (E)-N-(2,6-difluoro-4-(7,9,10-trimethyl-13,14-dihydro-9H-imidazo[4″,5″:5′,6]benzo[1′,2′:2,3]oxocino[4,5,6-hi]indolizine-2-carbonyl)phenyl)-4-(((1,4r)-4-methoxycyclohexyl)amino)but-2-enamide], for which the IC50 is 27 nM in experiment [1] (setting [3]) and 86 nM in the experiment with MIA PaCa-2 cells.
The matching figures for `Cc1nc2c3c(c(C(F)(F)F)cc2n1C)-c1cccn2c(C(=O)c4cc(F)c(NC(=O)/C=C/CNC(C)(C)C)c(F)c4)cc(c12)CCO3` [Example 33]: 14 nM and 5 nM.
With `Cc1nc2c3c(c(C(F)(F)F)cc2n1C)-c1cccn2c(C(=O)c4cc(F)c(NC(=O)/C=C/CNC5CCOCC5)c(F)c4)cc(c12)CCO3` [Example 34], the IC50 was 12 nM in experiment [1] (setting [3]) and 7 nM in the experiment with MIA PaCa-2 cells.
`Cc1nc2c3c(c(C(F)(F)F)cc2n1C)-c1cccn2c(C(=O)c4cc(F)c(NC(=O)/C=C/CNC5(C)CC5)c(F)c4)cc(c12)CCO3` [Example 35]: the IC50 in experiment [1] (setting [3]) amounted to 13 nM; with MIA PaCa-2 cells it was 14 nM.
In the same order, the values of `Cc1nc2c3c(c(C(F)(F)F)cc2n1C)-c1cccn2c(C(=O)c4cc(F)c(NC(=O)/C=C/CNC5CCP(C)(=O)CC5)c(F)c4)cc(c12)CCO3` (stereo not drawn) [Example 36] are 13 nM and 150 nM.
For the compound `CO[C@H]1CC[C@H](NC/C=C/C(=O)Nc2ccc(C(=O)c3cc4c5c(cccn35)-c3c(C(F)(F)F)cc5c(nc(C)n5C)c3OCC4)cc2)CC1` [Example 37, (E)-N-(4-(9,10-dimethyl-7-(trifluoromethyl)-13,14-dihydro-9H-imidazo[4″,5″:5′,6′]benzo[1′,2′:2,3]oxocino[4,5,6-hi]indolizine-2-carbonyl)phenyl)-4-(((1,4r)-4-methoxycyclohexyl)amino)but-2-enamide], the figures for the IC50 (in experiment [1] (setting [3]); in the experiment on MIA PaCa-2 cells) were 40 nM and 28 nM, respectively.
In the same order, the values of `Cc1nc2c3c(c(C(F)(F)F)cc2n1C)-c1cccn2c(C(=O)c4cc(F)c(NC(=O)/C=C/CNC5(C)CCOCC5)c(F)c4)cc(c12)CCO3` [Example 39] are 8 nM and 12 nM.
`Cc1nc2c3c(c(C(F)(F)F)cc2n1C)-c1cccn2c(C(=O)c4cc(F)c(NC(=O)/C=C/CNC5(C(=O)O)CCCCC5)c(F)c4)cc(c12)CCO3` [Example 40]: the IC50 in experiment [1] (setting [3]) worked out at 4700 nM; with MIA PaCa-2 cells, 1600 nM.
The matching figures for `Cc1nc2c3c(c(C(F)(F)F)cc2n1C)-c1cccn2c(C(=O)c4cc(F)c(NC(=O)/C=C/CNC5(C)CCOC5)c(F)c4)cc(c12)CCO3` (stereo not drawn) [Example 41]: 10 nM and 4 nM.
In the same order, the values of `CO[C@H]1CC[C@H](NC/C=C/C(=O)Nc2c(F)cc(C(=O)c3cc4c5c(cccn35)-c3c(C(F)(F)F)cc5c(nc(C)n5C)c3OC(C)C4)cc2F)CC1` (stereo partly drawn) [Example 42, (E)-N-(2,6-difluoro-4-(9,10,13-trimethyl-7-(trifluoromethyl)-13,14-dihydro-9H-imidazo[4″,5″:5′,6′]benzo[1′,2′:2,3]oxocino[4,5,6-hi]indolizine-2-carbonyl)phenyl)-4-(((1r,4r)-4-methoxycyclohexyl)amino)but-2-enamide] are 18 nM and 9 nM.
